The results in this text go back to US12133839B2, “Cannabinoid derivatives and methods for their preparation” (priority 2018, dated 2024).

Series [1] relates to Cytochrome P450 (Cy-P450).
The test system of the next series is Cy-P450. The following applies: compared with CBD.

For the compound `CCCCCc1cc(O)c(C2CC(C)CCC2C(C)C)c(O)c1C(C)=O` (centres unmarked) [Tetradhydro 2′-acetyl CBD (III), [Ar]-Acetyl Tetrahydrocannabidiol], in series [1], the “time for which formation of 11-Hydroxy THC is prevented (enhanced CBD effect)” value is reported as “about one”.
Regarding `CCCCCc1cc(O)c(C2CC(C)CCC2C(C)C)c(O)c1C(=O)CC` (centres unmarked) [[Ar]-Propionyl Tetrahydrocannabidiol], the “time for which THC metabolism is delayed” value in series [1] is listed as “up to 48 hours”.
Turning to `CCCCCc1cc(O)c(C2CC(C)CCC2C(C)C)c(O)c1` (centres unmarked) [Tetrahydro CBD (II), Tetrahydrocannabidiol], in the series on Cy-P450, the “oxidation by Cy-P450” value is “slower oxidation”. The “duration of the increased CBD activity” value in series [1] was “only a few minutes”. In series [1] (compared with CBD), the “increase in CBD activity, in effect and duration” value is listed as “approximately double”.
